Data set [1] in a line: Determination of blood and brain tissue binding (equilibrium dialysis). It counts as in vitro ADME, Sprague Dawley rat. The following applies: Sprague Dawley, 5 h at 37° C.; for fraction unbound at 5 h, 5 micromolar: 1:2 (w/v) in artificial CSF, rat brain homogenate, read-out: % FU Brain; for fraction unbound at 5 h, 0.5 micromolar: whole blood diluted 1:1 (v/v) with isotonic phosphate buffer, rat whole blood, read-out: % FU Blood. As for the experimental part:
Sprague Dawley rat whole blood, collected on the week of the experiment using K3-EDTA as an anti-coagulant, is diluted with isotonic phosphate buffer 1:1 (v/v). Sprague Dawley rat whole brain, stored frozen at −20° C., is thawed and homogenised in artificial cerebrospinal fluid (CSF) 1:2 (w/v).
An appropriate amount of test compound is dissolved in DMSO to give a 10 millimolar solution. Further dilutions, to obtain a 166.7 micromolar working solution are then prepared using 50% acetonitrile in MilliQ water. This working solution is used to spike the blood to obtain a final concentration of 0.5 micromolar in whole blood. Similarly, the working solution is used to spike brain samples to obtain a final concentration of 5 micromolar in whole brain. From these spiked blood and brain preparations, control samples (n=3), are immediately extracted and used to calculate the initial recovery of the test items.
150 microL of compound-free buffer (isotonic phosphate buffer for blood or artificial CSF buffer for brain) is dispensed in one half-well and 150 microL of spiked matrix (blood or brain) is loaded in the other half-well, with the two halves separated by a semi-permeable membrane. After an equilibration period of 5 h at 37° C., 50 microL of dialysed matrix (blood or brain) is added to 50 microL of corresponding compound-free buffer, and vice-versa for buffer, such that the volume of buffer to matrix (blood or brain) remains the same. Samples are then extracted by protein precipitation with 300 microL of acetonitrile containing rolipram (control for positive ionization mode) or diclofenac (control for negative ionization mode) as internal standards and centrifuged for 10 min at 3000 rpm. Supernatants are collected (100 microL), diluted with 27% AcN in MilliQ water (200 microL) and then injected into an HPLC-MS/MS or UPLC-MS/MS system to determine the concentration of test compound present.
Blood and brain tissue binding are then determined using the following formulas:
where Afu=apparent fraction unbound; Buffer=analyte/internal standard ratio determined in the buffer compartment; Blood=analyte/internal standard ratio determined in the blood compartment; Brain=analyte/internal standard ratio determined in the brain compartment.
where: fucr=Fraction unbound corrected; D=matrix dilution factor (D=2 for blood and D=3 for brain). then: […]
A general note: In equilibrium dialysis only unbound substance equilibrates across the membrane.

Data set [2] is described as follows: In vitro metabolic stability, human liver microsomes. It counts as in vitro ADME. The following applies: CLint expressed as mL/min/g liver. As for the experimental part:
(§1) The objective of this study was to determine metabolic stability of test items in rat and human liver microsomes. Verapamil and dextromethorphan were used as positive controls for microsomal incubation.
(§2) Incubation medium was prepared by combining 11.2 mL of potassium phosphate monobasic and 38.8 mL of potassium phosphate dibasic, diluted to 1 L with water. Cryopreserved microsomes were thawed and kept on ice until use. Microsomes were then diluted in incubation to a protein concentration of 0.56 mg/mL. […]
(§3) NADPH regenerating system solution was prepared by dissolving 1.7 mg of NADP, 7.8 mg of G6P and 6 units of G6P-Dehydrogenase in 1 mL of 2% sodium bicarbonate solution (prepared by dissolving 20 g of NaHCO3 in 1 L of water).
(§4) Test compounds were separately dissolved in DMF to obtain 10 mM stock solutions that were further diluted in water/acetonitrile 50/50 (v/v) to obtain the corresponding 50 μM working solutions. Verapamil and dextromethorphan were dissolved in DMF in order to obtain a 10 mM verapamil solution and 10 mM dextromethorphan solution. These solutions were then diluted in the incubation medium in order to obtain a 50 μM verapamil working solution and a 50 μM dextromethorphan working solution.
(§5) 800 μL-aliquots of NADPH regenerating system were pre-warmed at 37° C. for 5 minutes. 5 μL of 50 µM test compounds, verapamil or dextromethorphan were added to 445 μL of the 0.56 mg/mL microsomes solution and the incubation mixture was pre-warmed in a 96 deep well 2 mL plate (incubation plate) at 37° C. for 5 minutes. The incubation reactions were initiated by adding 50 μL of pre-warmed NADPH regenerating system to the incubation mixtures. 50 μL aliquots were taken from incubation mixtures at: 0, 3, 6, 9, 15, and 30 minutes and the reactions were stopped by adding 100 μL of aceronitrile with the corresponding internal standard. Samples were then diluted with 120 μL of water (final organic solvent percentage at 37%) and centrifuged at 3000 rpm for 10 minutes, prior the LC-MS/MS analysis.
(§6) Metabolic stability was calculated from the peak area ratio of the remaining test compound with internal standard versus time. The intrinsic clearance (CLint) was determined from the first order elimination constant k (min^−1) (obtained from GraphPad by plotting the natural logarithm of the peak area ratio of the remaining test item with internal standard versus time), using the actual volume of the incubation V (mL), the amount of hepatocytes in the incubation M (million cells) and the hepatocellularity number per a liver Hn (120 for human).
(In general: Liver microsomes are vesicles of endoplasmic reticulum, rich in cytochrome P450 enzymes.)

A short description of data set [3]: In vitro metabolic stability, rat liver microsomes. It counts as in vitro ADME. Conditions: CLint expressed as mL/min/g liver. The procedure: as §1, §2, §3, §4, §5, §6

Molecules are shown by their SMILES.

With `Cc1ccc(Oc2ccc(-n3c(=O)[nH]c4cccnc43)cn2)cc1OC(F)(F)F` [Example 4, 3-[6-[4-methyl-3-(trifluoromethoxy)phenoxy]-3-pyridyl]-1H-imidazo[4,5-b]pyridin-2-one], in data set [1], the fraction unbound at 5 h, 5 micromolar amounted to 0.003 and the fraction unbound at 5 h, 0.5 micromolar is 0.002. Moreover, in data set [2], the Cli human was determined as 0.7 mL/min/g. In data set [3], this compound registered a Cli rat of 0.9 mL/min/g.

In the case of `O=c1[nH]c2cccnc2n1-c1cnc(Oc2cccc(OC(F)(F)F)c2)nc1` [Example 17, 3-[2-[3-(trifluoromethoxy)phenoxy]pyrimidin-5-yl]-1H-imidazo[4,5-b]pyridin-2-one], in data set [1], the fraction unbound at 5 h, 5 micromolar was found to be 0.016 and the fraction unbound at 5 h, 0.5 micromolar stood at 0.016. Moreover, in data set [2], the Cli human was under 0.5 mL/min/g. In addition, the Cli rat in data set [3] is given as under 0.5 mL/min/g.

Consider `Cc1ccc(Oc2ncc(-n3c(=O)[nH]c4cccnc43)cn2)cc1OC(F)(F)F` [Example 32, 3-[2-[4-methyl-3-(trifluoromethoxy)phenoxy]pyrimidin-5-yl]-1H-imidazo[4,5-b]pyridin-2-one], for which, in data set [1], the fraction unbound at 5 h, 5 micromolar stood at 0.006 and the fraction unbound at 5 h, 0.5 micromolar was 0.01. In addition, in data set [2], the Cli human is 0.8 mL/min/g. In addition, the Cli rat in data set [3] is 0.9 mL/min/g.

For the origin of these results see US20240327406A1, “POTASSIUM CHANNEL MODULATORS” (Autifony Therapeutics Limited, priority 2021, published 2024).
